Experimental data reported in patent publication US8637498B2, “Oxopiperazine-azetidine amides and oxodiazepine-azetidine amides as monoacylglycerol lipase inhibitors” (Janssen Pharmaceutica, NV, priority 2010, dated 2014).
Where a chain is given by its changes, count along the chain named. pIC50, pKd: −log10 of the molar value. Like-named read-outs stand apart in the source and are kept apart here.

Columns and labels:
[1] = biological target: T1, purified wild type MGL (wt-MGLL 6H-11-313) (Homo sapiens, UniProt Q99685); assay: MGL Enzyme Activity Assay (wild type MGL, 4MU-B substrate); format: biochemical; settings: wild type MGL 5 nM, 4MU-B 10 μM, 37° C.; read-out: MGL wild type inh IC50
T1 construct: wt-MGLL 6H-11-313; 6H (hexahistidine) (N)
T1 sequence (Q99685 1-303): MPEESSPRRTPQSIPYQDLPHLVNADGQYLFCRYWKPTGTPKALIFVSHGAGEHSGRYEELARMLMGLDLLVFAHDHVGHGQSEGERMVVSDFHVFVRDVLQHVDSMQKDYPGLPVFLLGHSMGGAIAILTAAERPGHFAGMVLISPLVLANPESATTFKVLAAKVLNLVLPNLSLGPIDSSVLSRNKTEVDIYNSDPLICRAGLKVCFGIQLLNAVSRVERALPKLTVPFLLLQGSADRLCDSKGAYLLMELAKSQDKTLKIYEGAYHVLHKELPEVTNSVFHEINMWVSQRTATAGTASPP
Experimental: All rate-based assays were performed in black 384-well polypropylene PCR microplates (Abgene) in a total volume of 30 μL. Substrate 4-methylumbelliferyl butyrate (4MU-B; Sigma) and either purified mutant MGL (mut-MGLL 11-313 L179S L186S) or purified wild type MGL (wt-MGLL 6H-11-313) were diluted separately into 20 mM PIPES buffer (pH=7.0), containing 150 mM NaCl and 0.001% Tween 20. Compounds of Formula (Ia) and (Ib) were pre-dispensed (50 nL) into the assay plate using a Cartesian Hummingbird prior to adding 4MU-B (25 μL of 1.2× solution to a final concentration of 10 μM) followed by enzyme (5 μL of a 6× solution to a final concentration of 5 nM) to initiate the reaction. Final compound concentrations ranged from 17 to 0.0003 μM. The fluorescence change due to 4MU-B cleavage was monitored with excitation and emission wavelengths of 335 and 440 nm, respectively, and a bandwidth of 10 nm (Safire^2, Tecan) at 37° C. for 5 min.
The IC50 values for compounds of Formula (Ia) or (Ib) were determined using Excel from a fit of the equation to the concentration-response plot of the fractional activity as a function of inhibitor concentration.

mutant MGL = biological target: T2, mutant MGL (Homo sapiens, UniProt Q99685, L169S/L176S); assay: MGL ThermoFluor Assay - Mutant; format: binding
T2 construct: mut-MGLL 11-313 L179S L186S
T2 sequence (Q99685 1-303 L169S/L176S): T1 sequence (Q99685 1-303) with L169S, L176S
Experimental: The ThermoFluor (TF) assay is a 384-well plate-based binding assay that measures thermal stability of proteins^1,2. The experiments were carried out using instruments available from Johnson & Johnson Pharmaceutical Research & Development, LLC. TF dye used in all experiments was 1,8-ANS (Invitrogen: A-47). Final TF assay conditions used for MGL studies were 0.07 mg/ml of mutant MGL, 100 μM ANS, 200 mM NaCl, 0.001% Tween-20 in 50 mM PIPES (pH=7.0).
Screening compound plates contained 100% DMSO compound solutions at a single concentration. For follow-up concentration-response studies, compounds were arranged in a pre-dispensed plate (Greiner Bio-one: 781280), wherein compounds were serially diluted in 100% DMSO across 11 columns within a series. Columns 12 and 24 were used as DMSO reference and contained no compound. For both single and multiple compound concentration-repsonse experiments, the compound aliquots (46 nL) were robotically predispensed directly into 384-well black assay plates (Abgene: TF-0384/k) using the Hummingbird liquid handler. Following compound dispension, protein and dye solutions were added to achieve the final assay volume of 3 μL. The assay solutions were overlayed with 1 μL of silicone oil (Fluka, type DC 200: 85411) to prevent evaporation.
Bar-coded assay plates were robotically loaded onto a thermostatically controlled PCR-type thermal block and then heated from 40 to 90° C. degrees at a ramp-rate of 1° C./min for all experiments. Fluorescence was measured by continuous illumination with UV light (Hamamatsu LC6), supplied via fiber optics and filtered through a band-pass filter (380-400 nm; >6 OD cutoff). Fluorescence emission of the entire 384-well plate was detected by measuring light intensity using a CCD camera (Sensys, Roper Scientific) filtered to detect 500±25 nm, resulting in simultaneous and independent readings of all 384 wells. A single image with 20-sec exposure time was collected at each temperature, and the sum of the pixel intensity in a given area of the assay plate was recorded vs temperature and fit to standard equations to yield the Tm^1. • 1. Pantoliano, M. W., Petrella, E. C., Kwasnoski, J. D., Lobanov, V. S., Myslik, J., Graf, E., Carver, T., Asel, E., Springer, B. A., Lane, P., and Salemme, F. R. (2001) J Biomol Screen 6, 429-40. • 2. Matulis, D., Kranz, J. K., Salemme, F. R., and Todd, M. J. (2005) Biochemistry 44, 5258-66.
The Kd values for compounds of Formula (Ia) and (Ib) were determined from a fit of the equation to the concentration-response plot of the fractional activity as a function of Tm. For some experiments, quantitative NMR spectroscopy (qNMR) was used to measure concentration of the initial 100% DMSO compound solutions and, using the same fitting method, qKd values were determined.

[2] = mutant MGL, compound concentration measured by qNMR, read-out: MGL mutant ThermoFluor qKd (using qNMR conc.)
[3] = mutant MGL 0.07 mg/ml, 1,8-ANS dye, read-out: MGL mutant ThermoFluor Kd

Row | SMILES | pIC50 [1] | pKd (mutant MGL; [2]) | pKd (mutant MGL; [3])
1 | O=C(c1ccc2c(ccn2-c2ccc(F)cc2)c1)N1CC(N2CCN(c3ncccn3)C(=O)C2)C1 [Cpd 4, 4-(1-{[1-(4-Fluorophenyl)-1H-indol-5-yl]carbonyl}azetidin-3-yl)-1-pyrimidin-2-ylpiperazin-2-one] | 6.87 | 6.03 | 
2 | O=C(c1sc2cc(C(F)(F)F)ccc2c1Cl)N1CC(N2CCN(c3ncccn3)C(=O)C2)C1 [Cpd 8, 4-(1-{[3-Chloro-6-(trifluoromethyl)-1-benzothiophen-2-yl]carbonyl}azetidin-3-yl)-1-pyrimidin-2-ylpiperazin-2-one] | 6.90 | 6.78 | 
3 | O=C(c1ccc(-c2ccccc2)cc1)N1CC(N2CCN(c3ncccn3)C(=O)C2)C1 [Cpd 9, 4-[1-(Biphenyl-4-ylcarbonyl)azetidin-3-yl]-1-pyrimidin-2-ylpiperazin-2-one] | 5.11 | 5.25 | 
4 | O=C(c1ccc2nc(-c3ccccc3)sc2c1)N1CC(N2CCN(c3ncccn3)C(=O)C2)C1 [Cpd 10, 4-{1-[(2-Phenyl-1,3-benzothiazol-6-yl)carbonyl]azetidin-3-yl}-1-pyrimidin-2-ylpiperazin-2-one] | 5.44 | 4.97 | 
5 | O=C(c1sc2cc(C(F)(F)F)ccc2c1Cl)N1CC(N2CCN(c3nccs3)C(=O)C2)C1 [Cpd 11, 4-(1-{[3-Chloro-6-(trifluoromethyl)-1-benzothiophen-2-yl]carbonyl}azetidin-3-yl)-1-(1,3-thiazol-2-yl)piperazin-2-one] | > 8.30 |  | 7.19
6 | O=C(c1ccc2nc(-c3ccccc3)sc2c1)N1CC(N2CCN(c3nccs3)C(=O)C2)C1 [Cpd 12, 4-{1-[(2-Phenyl-1,3-benzothiazol-6-yl)carbonyl]azetidin-3-yl}-1-(1,3-thiazol-2-yl)piperazin-2-one] | 7.01 |  | 6.00
7 | O=C(c1ccc2c(ccn2-c2ccc(C(F)(F)F)cc2)c1)N1CC(N2CCN(c3ccccc3)C(=O)C2)C1 [Cpd 13, 1-Phenyl-4-[1-({1-[4-(trifluoromethyl)phenyl]-1H-indol-5-yl}carbonyl)azetidin-3-yl]piperazin-2-one] | 6.04 |  | 5.87
8 | O=C(c1sc2cc(C(F)(F)F)ccc2c1Cl)N1CC(N2CCN(c3ccccc3)C(=O)C2)C1 [Cpd 14, 4-(1-{[3-Chloro-6-(trifluoromethyl)-1-benzothiophen-2-yl]carbonyl}azetidin-3-yl)-1-phenylpiperazin-2-one] | 6.65 |  | 6.31
9 | O=C(c1ccc2c(ccn2-c2ccc(F)c(F)c2)c1)N1CC(N2CCN(c3ccccc3)C(=O)C2)C1 [Cpd 15, 4-(1-{[1-(3,4-Difluorophenyl)-1H-indol-5-yl]carbonyl}azetidin-3-yl)-1-phenylpiperazin-2-one] | 6.52 |  | 5.71
10 | O=C(c1ccc2nc(-c3ccccc3)oc2c1)N1CC(N2CCN(c3nccs3)C(=O)C2)C1 [Cpd 16, 4-{1-[(2-Phenyl-1,3-benzoxazol-6-yl)carbonyl]azetidin-3-yl}-1-(1,3-thiazol-2-yl)piperazin-2-one] | 7.17 | 5.86 | 
11 | O=C(c1sc2cc(C(F)(F)F)ccc2c1Cl)N1CC(N2CCC(=O)N(c3ncccn3)CC2)C1 [Cpd 17, 1-(1-{[3-Chloro-6-(trifluoromethyl)-1-benzothiophen-2-yl]carbonyl}azetidin-3-yl)-4-pyrimidin-2-yl-1,4-diazepan-5-one] | 7.26 | 7.28 | 
12 | O=C(c1ccc(-c2ccccc2)cc1)N1CC(N2CCN(c3nccs3)C(=O)C2)C1 [Cpd 18, 4-[1-(Biphenyl-4-ylcarbonyl)azetidin-3-yl]-1-(1,3-thiazol-2-yl)piperazin-2-one] | 5.78 | 5.86 | 
13 | O=C(c1sc2cc(C(F)(F)F)ccc2c1Cl)N1CC(N2CCC(=O)N(c3nccs3)CC2)C1 [Cpd 19, 1-(1-{[3-Chloro-6-(trifluoromethyl)-1-benzothiophen-2-yl]carbonyl}azetidin-3-yl)-4-(1,3-thiazol-2-yl)-1,4-diazepan-5-one] | > 8.30 | 9.10 | 
14 | O=C(c1ccc2c(ccn2-c2ccc(F)cc2)c1)N1CC(N2CCC(=O)N(c3ncccn3)CC2)C1 [Cpd 20, 1-(1-{[1-(4-Fluorophenyl)-1H-indol-5-yl]carbonyl}azetidin-3-yl)-4-pyrimidin-2-yl-1,4-diazepan-5-one] | 6.61 | 6.55 | 
15 | O=C(c1ccc2c(ccn2-c2ccc(F)cc2)c1)N1CC(N2CCC(=O)N(c3nccs3)CC2)C1 [Cpd 21, 1-(1-{[1-(4-Fluorophenyl)-1H-indol-5-yl]carbonyl}azetidin-3-yl)-4-(1,3-thiazol-2-yl)-1,4-diazepan-5-one] | > 8.30 | 9.00 | 
16 | O=C(c1ccc2nc(-c3ccccc3)oc2c1)N1CC(N2CCC(=O)N(c3nccs3)CC2)C1 [Cpd 22, 1-{1-[(2-Phenyl-1,3-benzoxazol-6-yl)carbonyl]azetidin-3-yl}-4-(1,3-thiazol-2-yl)-1,4-diazepan-5-one] | > 8.30 | 8.60 | 
17 | O=C(c1cc2ccc(C(F)(F)F)cc2s1)N1CC(N2CCN(c3ncccn3)CC2=O)C1 [Cpd 23, 4-Pyrimidin-2-yl-1-(1-{[6-(trifluoromethyl)-1-benzothiophen-2-yl]carbonyl}azetidin-3-yl)piperazin-2-one] | 6.25 |  | 6.15
